Test results from patent US12365696B2, “Small-molecule focal adhesion kinase (FAK) inhibitors” (DANA-FARBER CANCER INSTITUTE, INC., priority 2019, dated 2025).
Read-outs that look alike come from different tables or passages of the source.

Assays:
Experiment in all cases: KINOMEscan
Type in all cases: binding
[1] = biological target: MRCKB (Homo sapiens (Human), UniProt Q9Y5S2); conditions: 10000 nM, read-out: Percent Control
[2] = biological target: HIPK4 (Homo sapiens (Human), UniProt Q8NE63); conditions: HIPK4, 10000 nM; read-out: Percent Control
[3] = biological target: VRK2 (Homo sapiens (Human), UniProt Q86Y07); conditions: VRK2, 10000 nM; read-out: Percent Control
Chain of VRK2 (Q86Y07 whole entry): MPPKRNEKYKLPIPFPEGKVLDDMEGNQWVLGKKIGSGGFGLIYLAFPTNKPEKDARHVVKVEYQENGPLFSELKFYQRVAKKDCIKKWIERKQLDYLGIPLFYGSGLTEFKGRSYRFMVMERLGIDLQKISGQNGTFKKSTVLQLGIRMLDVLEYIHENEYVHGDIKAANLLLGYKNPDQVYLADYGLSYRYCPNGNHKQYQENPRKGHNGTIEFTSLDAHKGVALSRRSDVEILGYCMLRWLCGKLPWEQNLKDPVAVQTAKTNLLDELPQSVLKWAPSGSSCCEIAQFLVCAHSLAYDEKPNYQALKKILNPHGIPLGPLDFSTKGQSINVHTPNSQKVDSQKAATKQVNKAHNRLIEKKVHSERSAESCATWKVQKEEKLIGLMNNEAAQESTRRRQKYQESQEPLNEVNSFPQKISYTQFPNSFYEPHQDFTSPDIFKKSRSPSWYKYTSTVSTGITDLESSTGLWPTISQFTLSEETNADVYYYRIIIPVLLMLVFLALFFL

[4] = biological target: LIMK1 (Homo sapiens (Human), UniProt P53667); conditions: LIMK1, 10000 nM; read-out: Percent Control
[5] = biological target: MST2 (Homo sapiens (Human), UniProt Q13188); conditions: MST2, 10000 nM; read-out: Percent Control
Chain of MST2 (Q13188 whole entry): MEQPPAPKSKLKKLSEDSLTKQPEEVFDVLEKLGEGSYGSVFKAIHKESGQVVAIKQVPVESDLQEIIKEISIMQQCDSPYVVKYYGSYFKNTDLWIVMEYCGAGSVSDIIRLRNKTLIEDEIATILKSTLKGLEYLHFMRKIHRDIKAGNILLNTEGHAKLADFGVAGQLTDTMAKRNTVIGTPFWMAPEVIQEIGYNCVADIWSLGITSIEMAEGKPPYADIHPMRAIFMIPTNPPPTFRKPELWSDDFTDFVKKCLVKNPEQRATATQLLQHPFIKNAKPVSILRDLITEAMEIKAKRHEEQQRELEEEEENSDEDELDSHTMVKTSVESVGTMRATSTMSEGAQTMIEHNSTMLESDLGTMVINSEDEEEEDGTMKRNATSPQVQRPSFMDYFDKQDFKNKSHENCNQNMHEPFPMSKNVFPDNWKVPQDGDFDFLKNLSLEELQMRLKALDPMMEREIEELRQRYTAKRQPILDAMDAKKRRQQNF

[6] = biological target: PIK3CA(C420R) (Homo sapiens (Human), UniProt P42336, C420R); conditions: 10000 nM, read-out: Percent Control
[7] = biological target: KIT(V5S9D, V654A) (Homo sapiens (Human), UniProt P10721, V559D/V654A); conditions: 10000 nM, read-out: Percent Control
[8] = biological target: AURKA (Homo sapiens (Human), UniProt O14965); conditions: 10000 nM, read-out: Percent Control
[9] = biological target: PIP5K1C (Homo sapiens (Human), UniProt O60331); conditions: 10000 nM, read-out: Percent Control
[10] = biological target: GRK4 (Homo sapiens (Human), UniProt P32298); conditions: GRK4, 10000 nM; read-out: Percent Control
[11] = biological target: WNK1 (Homo sapiens (Human), UniProt Q9H4A3); conditions: WNK1, 10000 nM; read-out: Percent Control
[12] = biological target: STK33 (Homo sapiens (Human), UniProt Q9BYT3); conditions: STK33, 10000 nM; read-out: Percent Control
[13] = biological target: NEK9 (Homo sapiens (Human), UniProt Q8TD19); conditions: NEK9, 10000 nM; read-out: Percent Control
[14] = biological target: RSK3(Kin.Dom.1-N-terminal) (Homo sapiens (Human), UniProt Q15349); conditions: 10000 nM, read-out: Percent Control
[15] = biological target: KIT (Homo sapiens (Human), UniProt P10721); conditions: 10000 nM, read-out: Percent Control
[16] = biological target: SRC (Homo sapiens (Human), UniProt P12931); conditions: 10000 nM, read-out: Percent Control
Chain of SRC (P12931 whole entry, looked up): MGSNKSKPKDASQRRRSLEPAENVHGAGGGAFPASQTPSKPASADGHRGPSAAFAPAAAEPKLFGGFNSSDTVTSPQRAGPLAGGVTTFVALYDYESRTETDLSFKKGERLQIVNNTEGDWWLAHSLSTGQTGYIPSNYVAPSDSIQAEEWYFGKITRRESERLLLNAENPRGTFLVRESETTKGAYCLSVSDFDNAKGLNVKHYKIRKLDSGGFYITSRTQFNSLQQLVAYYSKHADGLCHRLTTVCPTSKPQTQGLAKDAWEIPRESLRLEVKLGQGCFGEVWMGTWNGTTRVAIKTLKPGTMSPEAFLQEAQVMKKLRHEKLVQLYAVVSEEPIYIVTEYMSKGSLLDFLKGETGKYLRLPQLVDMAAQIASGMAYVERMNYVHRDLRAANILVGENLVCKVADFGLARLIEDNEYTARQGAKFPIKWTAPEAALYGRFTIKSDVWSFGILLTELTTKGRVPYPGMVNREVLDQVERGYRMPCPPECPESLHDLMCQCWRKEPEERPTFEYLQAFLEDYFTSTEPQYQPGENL

[17] = biological target: PIK3CG (Homo sapiens (Human), UniProt P48736); conditions: 10000 nM, read-out: Percent Control
Chain of PIK3CG (P48736 whole entry): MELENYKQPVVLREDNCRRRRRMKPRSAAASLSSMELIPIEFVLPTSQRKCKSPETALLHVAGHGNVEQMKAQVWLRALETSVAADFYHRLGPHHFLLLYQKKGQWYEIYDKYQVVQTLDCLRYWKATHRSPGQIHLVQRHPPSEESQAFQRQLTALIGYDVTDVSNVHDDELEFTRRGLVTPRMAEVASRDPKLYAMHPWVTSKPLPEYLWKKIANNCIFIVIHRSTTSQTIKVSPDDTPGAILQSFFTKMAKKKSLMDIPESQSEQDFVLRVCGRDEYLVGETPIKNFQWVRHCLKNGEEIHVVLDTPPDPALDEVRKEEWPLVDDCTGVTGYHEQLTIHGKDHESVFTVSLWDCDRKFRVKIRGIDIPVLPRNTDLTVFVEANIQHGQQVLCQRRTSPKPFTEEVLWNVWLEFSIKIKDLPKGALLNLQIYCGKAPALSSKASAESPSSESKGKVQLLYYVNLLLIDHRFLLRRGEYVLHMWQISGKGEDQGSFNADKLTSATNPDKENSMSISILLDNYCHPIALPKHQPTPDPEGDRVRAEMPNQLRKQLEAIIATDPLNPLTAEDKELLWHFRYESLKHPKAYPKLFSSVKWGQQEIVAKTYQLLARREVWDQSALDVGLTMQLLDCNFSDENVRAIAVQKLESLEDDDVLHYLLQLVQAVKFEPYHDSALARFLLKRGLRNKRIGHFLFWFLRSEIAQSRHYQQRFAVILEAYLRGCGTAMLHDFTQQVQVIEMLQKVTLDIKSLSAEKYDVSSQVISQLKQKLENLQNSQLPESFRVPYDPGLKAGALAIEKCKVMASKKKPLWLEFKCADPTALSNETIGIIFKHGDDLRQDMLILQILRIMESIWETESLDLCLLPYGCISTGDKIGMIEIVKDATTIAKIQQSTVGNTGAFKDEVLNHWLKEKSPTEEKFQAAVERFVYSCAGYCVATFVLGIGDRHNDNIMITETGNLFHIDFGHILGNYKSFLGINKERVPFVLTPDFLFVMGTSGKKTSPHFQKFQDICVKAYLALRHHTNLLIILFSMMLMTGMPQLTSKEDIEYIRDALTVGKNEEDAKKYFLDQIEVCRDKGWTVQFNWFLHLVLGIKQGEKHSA

[18] = biological target: CLK1 (Homo sapiens (Human), UniProt P49759); conditions: CLK1, 10000 nM; read-out: Percent Control
Chain of CLK1 (P49759 whole entry): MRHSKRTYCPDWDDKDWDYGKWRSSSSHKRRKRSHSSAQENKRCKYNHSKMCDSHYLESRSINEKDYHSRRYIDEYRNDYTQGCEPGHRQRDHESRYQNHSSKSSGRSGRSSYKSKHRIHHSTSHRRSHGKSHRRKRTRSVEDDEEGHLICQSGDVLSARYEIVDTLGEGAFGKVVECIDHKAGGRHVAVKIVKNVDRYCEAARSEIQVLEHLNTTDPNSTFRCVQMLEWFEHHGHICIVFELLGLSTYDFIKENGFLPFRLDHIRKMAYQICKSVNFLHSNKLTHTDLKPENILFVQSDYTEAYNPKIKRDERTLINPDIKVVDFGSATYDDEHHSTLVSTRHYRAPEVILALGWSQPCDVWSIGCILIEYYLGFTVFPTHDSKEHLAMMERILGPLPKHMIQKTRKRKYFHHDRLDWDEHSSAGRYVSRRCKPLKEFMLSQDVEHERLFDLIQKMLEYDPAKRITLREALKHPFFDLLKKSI

[19] = biological target: ABL1(F317I)-phosphorylated (Homo sapiens (Human), UniProt P00519, F317I); conditions: 10000 nM, read-out: Percent Control
Chain of ABL1(F317I)-phosphorylated (P00519 whole entry F317I): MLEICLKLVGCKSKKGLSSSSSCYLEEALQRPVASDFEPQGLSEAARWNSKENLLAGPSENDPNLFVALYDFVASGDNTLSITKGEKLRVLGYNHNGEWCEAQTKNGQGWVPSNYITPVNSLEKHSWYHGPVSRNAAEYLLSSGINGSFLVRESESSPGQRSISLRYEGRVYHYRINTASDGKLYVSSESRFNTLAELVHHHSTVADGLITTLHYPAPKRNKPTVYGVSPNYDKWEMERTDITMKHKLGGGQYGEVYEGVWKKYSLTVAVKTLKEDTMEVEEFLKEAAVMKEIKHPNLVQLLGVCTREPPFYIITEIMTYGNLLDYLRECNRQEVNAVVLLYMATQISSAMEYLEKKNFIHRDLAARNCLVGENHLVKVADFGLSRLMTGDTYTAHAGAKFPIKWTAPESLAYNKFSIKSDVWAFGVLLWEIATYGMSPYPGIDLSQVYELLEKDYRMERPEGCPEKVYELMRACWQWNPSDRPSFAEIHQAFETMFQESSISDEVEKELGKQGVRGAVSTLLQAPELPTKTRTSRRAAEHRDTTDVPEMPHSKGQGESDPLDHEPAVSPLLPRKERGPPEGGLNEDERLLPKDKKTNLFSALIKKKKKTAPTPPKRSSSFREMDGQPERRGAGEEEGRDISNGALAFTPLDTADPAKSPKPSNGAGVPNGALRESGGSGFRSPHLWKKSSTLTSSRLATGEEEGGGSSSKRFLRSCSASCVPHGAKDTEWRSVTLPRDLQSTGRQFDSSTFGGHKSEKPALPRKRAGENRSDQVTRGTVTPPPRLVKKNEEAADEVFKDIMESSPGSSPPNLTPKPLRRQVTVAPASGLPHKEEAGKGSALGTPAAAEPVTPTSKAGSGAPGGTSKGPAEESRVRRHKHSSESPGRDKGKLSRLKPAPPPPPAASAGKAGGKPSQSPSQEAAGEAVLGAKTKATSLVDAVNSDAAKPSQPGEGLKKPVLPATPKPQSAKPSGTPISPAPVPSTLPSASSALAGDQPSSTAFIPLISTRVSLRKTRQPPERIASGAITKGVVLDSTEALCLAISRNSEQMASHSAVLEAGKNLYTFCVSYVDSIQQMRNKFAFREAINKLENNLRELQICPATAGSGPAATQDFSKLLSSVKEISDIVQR

[20] = biological target: TRKA (Homo sapiens (Human), UniProt P04629); conditions: 10000 nM, read-out: Percent Control
[21] = biological target: BLK (Homo sapiens (Human), UniProt P51451); conditions: 10000 nM, read-out: Percent Control
[22] = biological target: CHEK2 (Homo sapiens (Human), UniProt O96017); conditions: CHEK2, 10000 nM; read-out: Percent Control
[23] = biological target: MYLK2 (Homo sapiens (Human), UniProt Q9H1R3); conditions: MYLK2, 10000 nM; read-out: Percent Control
[24] = biological target: KIT(L576P) (Homo sapiens (Human), UniProt P10721, L576P); conditions: 10000 nM, read-out: Percent Control
[25] = biological target: PAK4 (Homo sapiens (Human), UniProt O96013); conditions: PAK4, 10000 nM; read-out: Percent Control
[26] = biological target: ABL2 (Homo sapiens (Human), UniProt P42684); conditions: ABL2, 10000 nM; read-out: Percent Control
[27] = biological target: NDR1 (Homo sapiens (Human), UniProt Q15208); conditions: NDR1, 10000 nM; read-out: Percent Control
[28] = biological target: BMPR2 (Homo sapiens (Human), UniProt Q13873); conditions: BMPR2, 10000 nM; read-out: Percent Control
[29] = biological target: EGFR(L858R) (Homo sapiens (Human), UniProt P00533, L858R); conditions: 10000 nM, read-out: Percent Control
[30] = biological target: MAK (Homo sapiens (Human), UniProt P20794); conditions: 10000 nM, read-out: Percent Control
[31] = biological target: SRPK2 (Homo sapiens (Human), UniProt P78362); conditions: SRPK2, 10000 nM; read-out: Percent Control
Chain of SRPK2 (P78362 whole entry): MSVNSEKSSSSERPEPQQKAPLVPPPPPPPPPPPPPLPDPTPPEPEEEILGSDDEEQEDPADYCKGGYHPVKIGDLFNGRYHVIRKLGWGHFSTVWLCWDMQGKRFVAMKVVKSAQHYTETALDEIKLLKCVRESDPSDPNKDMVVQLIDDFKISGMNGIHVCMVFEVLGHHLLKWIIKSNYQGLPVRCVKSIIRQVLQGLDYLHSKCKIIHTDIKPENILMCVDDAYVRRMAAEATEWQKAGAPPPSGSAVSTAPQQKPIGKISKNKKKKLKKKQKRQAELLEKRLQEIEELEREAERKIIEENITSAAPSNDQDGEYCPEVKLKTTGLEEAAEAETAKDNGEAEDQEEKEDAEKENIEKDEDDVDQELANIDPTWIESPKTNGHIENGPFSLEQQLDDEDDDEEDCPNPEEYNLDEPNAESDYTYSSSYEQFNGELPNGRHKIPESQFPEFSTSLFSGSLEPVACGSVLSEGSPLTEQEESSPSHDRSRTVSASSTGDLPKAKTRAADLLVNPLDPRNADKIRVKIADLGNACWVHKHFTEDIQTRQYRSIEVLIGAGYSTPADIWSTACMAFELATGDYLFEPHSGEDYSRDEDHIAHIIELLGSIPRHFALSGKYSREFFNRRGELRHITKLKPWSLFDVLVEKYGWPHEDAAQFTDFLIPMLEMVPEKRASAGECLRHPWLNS

[32] = biological target: MET(M1250T) (Homo sapiens (Human), UniProt P08581, M1250T); conditions: 10000 nM, read-out: Percent Control
[33] = biological target: EPHA4 (Homo sapiens (Human), UniProt P54764); conditions: EPHA4, 10000 nM; read-out: Percent Control
[34] = biological target: CAMKK2 (Homo sapiens (Human), UniProt Q96RR4); conditions: CAMKK2, 10000 nM; read-out: Percent Control

| Structure (SMILES) | remaining binding at 10 µM [1] [%] | remaining binding at 10 µM [2] [%] | remaining binding at 10 µM [3] [%] | remaining binding at 10 µM [4] [%] | remaining binding at 10 µM [5] [%] | remaining binding at 10 µM [6] [%] | remaining binding at 10 µM [8] [%] | remaining binding at 10 µM [9] [%] | remaining binding at 10 µM [10] [%] | remaining binding at 10 µM [11] [%] | remaining binding at 10 µM [12] [%] | remaining binding at 10 µM [13] [%] | remaining binding at 10 µM [14] [%] | remaining binding at 10 µM [15] [%] | remaining binding at 10 µM [16] [%] | remaining binding at 10 µM [17] [%] | remaining binding at 10 µM [18] [%] | remaining binding at 10 µM [19] [%] | remaining binding at 10 µM [20] [%] | remaining binding at 10 µM [21] [%] | other results |
| --- | --- | --- | --- | --- | --- | --- | --- | --- | --- | --- | --- | --- | --- | --- | --- | --- | --- | --- | --- | --- | --- |
| COc1cc(N2CCC(N3CCN(C)CC3)CC2)ccc1Nc1ncc2c(n1)N(C)c1sc(C)nc1C(=O)N2 [Compound 3, 6-((2-methoxy-4-(4-(4-methylpiperazin-1-yl)piperidin-1-yl)phenyl)amino)-2,4-dimethyl-4,9-dihydro-10H-pyrimido[5,4-b]thiazolo[5,4-e][1,4]diazepin-10-one] | 100 | 82 | 91 | 96 | 100 | 90 | 92 | 99 | 72 | 100 | 84 | 84 | 83 | 54 | 63 | 93 | 90 | 14 | 100 | 55 | remaining binding at 10 µM ([7]; KIT(V5S9D, V654A)): 108%; remaining binding at 10 µM [22]: 72%; remaining binding at 10 µM [23]: 84%; remaining binding at 10 µM [24]: 47%; remaining binding at 10 µM [25]: 65%; remaining binding at 10 µM [26]: 69%; remaining binding at 10 µM [27]: 97%; remaining binding at 10 µM [28]: 100%; remaining binding at 10 µM [29]: 79%; remaining binding at 10 µM [30]: 71%; remaining binding at 10 µM [31]: 87%; remaining binding at 10 µM [32]: 82%; remaining binding at 10 µM [33]: 87%; remaining binding at 10 µM [34]: 80% |
| COc1cc(N2CCC(N3CCN(C)CC3)CC2)ccc1Nc1ncc2c(n1)N(C)c1sc(C)nc1C(=O)N2C [Compound 5, 6-((2-methoxy-4-(4-(4-methylpiperazin-1-yl)piperidin-1-yl)phenyl)amino)-2,4,9-trimethyl-4,9-dihydro-10H-pyrimido[5,4-b]thiazolo[5,4-e][1,4]diazepin-10-one] | 100 | 100 | 97 | 95 | 100 | 100 | 78 | 95 | 97 | 89 | 10 | 100 | 100 | 100 | 100 | 88 | 100 | 26 | 100 | 95 | remaining binding at 10 µM ([7]; KIT(V559D, V654A)): 100%; remaining binding at 10 µM [22]: 100%; remaining binding at 10 µM [23]: 97%; remaining binding at 10 µM [24]: 100%; remaining binding at 10 µM [25]: 100%; remaining binding at 10 µM [26]: 95%; remaining binding at 10 µM [27]: 98%; remaining binding at 10 µM [28]: 100%; remaining binding at 10 µM [29]: 100%; remaining binding at 10 µM [30]: 100%; remaining binding at 10 µM [31]: 89%; remaining binding at 10 µM [32]: 100%; remaining binding at 10 µM [33]: 68%; remaining binding at 10 µM [34]: 88% |
